Measurements from patent US6897222B2, “Pyrido[2,1-a]isoquinoline derivatives” (Hoffmann-La Roche Inc., priority 2001, dated 2005).
pIC50: −log10 of the molar value.

Biological target: T1, human DPP-IV (Homo sapiens, UniProt P27487)
T1 construct: made in house; host or cells: Pichia pastoris
Experiment: DPP-IV activity assay (fluorogenic or colorimetric), IC50 determination
Assay type: biochemical
Conditions: natural human DPP-IV from plasma pool or recombinant human DPP-IV; substrate 50 μM (fluorogenic) or 200 μM (colorimetric); 37° C., pH 7.8
Experimental: Activity of DPP-IV inhibitors are tested with natural human DPP-IV derived from a human plasma pool or with recombinant human DPP-IV. Human citrate plasma from different donors is pooled, filtered through a 0.2 micron membrane under sterile conditions and aliquots of 1 ml are shock frozen and stored at −120° C. until used. In the colorimetric DPP-IV assay 5 to 10 μl human plasma and in the fluorometric assay 1.0 μl of human plasma in a total assay volume of 100 μl is used as an enzyme source. […] Human DPP-IV is expressed and purified from the culture medium using conventional column chromatography including size exclusion and anion and cation chromatography. […] In the colorimetric DPP-IV assay 20 ng rec.-h DPP-IV and in the fluorometric assay 2 ng rec-h DPP-IV in a total assay volume of 100 μl is used as an enzyme source.
A 20 mM stock solution in 10% DMF/H2O is stored at −20° C. until use.
In the colorimetric assay H-Ala-Pro-pNA. […] A 10 mM stock solution in 10% MeOH/H2O is stored at −20° C. until use.
Initial rate constants are calculated by best fit linear regression.
DPP-IV activity assays are performed in 96 well plates at 37° C. in a total assay volume of 100 μl. The assay buffer consists of 50 mM Tris/HCl pH 7.8 containing 0.1 mg/ml BSA and 100 mM NaCl. Test compounds are solved in 100% DMSO, diluted to the desired concentration in 10% DMSO/H2O. The final DMSO concentration in the assay is 1% (v/v).
Compounds are with (10 minutes at 37° C.) and without preincubation with the enzyme. Enzyme reactions are started with substrate application followed by immediate mixing.
Kinetic parameters of the enzyme reaction are calculated at at least 5 different substrate concentrations and at least 5 different test compound concentrations.

T1 sequence (P27487 31-766): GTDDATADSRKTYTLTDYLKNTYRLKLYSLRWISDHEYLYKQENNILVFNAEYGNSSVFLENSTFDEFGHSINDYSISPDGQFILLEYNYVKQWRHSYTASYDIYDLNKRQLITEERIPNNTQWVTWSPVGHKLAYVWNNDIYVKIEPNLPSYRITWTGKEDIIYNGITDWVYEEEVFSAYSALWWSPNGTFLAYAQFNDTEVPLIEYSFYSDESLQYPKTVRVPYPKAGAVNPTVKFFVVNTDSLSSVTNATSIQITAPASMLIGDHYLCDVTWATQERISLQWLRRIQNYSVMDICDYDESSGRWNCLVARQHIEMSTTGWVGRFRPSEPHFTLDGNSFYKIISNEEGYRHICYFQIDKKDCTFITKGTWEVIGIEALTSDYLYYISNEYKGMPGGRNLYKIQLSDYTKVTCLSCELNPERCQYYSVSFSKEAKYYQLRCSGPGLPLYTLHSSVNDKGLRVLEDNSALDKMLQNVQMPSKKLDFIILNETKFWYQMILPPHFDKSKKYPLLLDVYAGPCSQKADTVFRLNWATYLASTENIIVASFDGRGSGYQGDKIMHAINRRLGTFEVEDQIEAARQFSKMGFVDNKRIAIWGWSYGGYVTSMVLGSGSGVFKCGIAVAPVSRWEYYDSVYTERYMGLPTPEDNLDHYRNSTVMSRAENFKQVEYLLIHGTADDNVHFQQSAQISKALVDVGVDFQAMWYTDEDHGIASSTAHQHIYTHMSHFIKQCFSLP

pIC50 | SMILES
6.24 | COc1cc2c(cc1OC)C1CC(N)C(CCC(C)C)CN1CC2 (racemic) [Example 5, rac-9,10-Dimethoxy-3β-(3-methyl-butyl)-1,3,4,6,7,11bβ-hexahydro-2H-pyrido[2,1-a]isoquinolin-2α-ylamine]
6.47 | CCCCC1CN2CCc3cc(O)c(OC)cc3C2CC1N (racemic) [Example 43b, rac-2α-amino-3β-butyl-10-methoxy-1,3,4,6,7,11bβ-hexahydro-2H-pyrido[2,1-a]isoquinolin-9-ol]
6.21 | CCCC[C@@H]1CN2CCc3cc(O)c(OC)cc3[C@H]2C[C@H]1N (racemic) [Example 39, rac-2α-Amino-3β-butyl-10-methoxy-1,3,4,6,7,11bβ-hexahydro-2H-pyrido[2,1-a]isoquinolin-9-ol chlorohydrate (1:2)]

SMILES | pIC50
CCCCC1CN2C(CC1N)c1cc(OC)c(OC)cc1C1CCCCC12 (racemic) [Example 36, rac-7β-Butyl-11,12-dimethoxy-2,3,4,4a,6,7,8,9,9a,13bβ-decahydro-1H-pyrido[1,2-f]phenanthridin-8β-ylamine chlorohydrate (1:2)] | 6.80
CCCCC1CN2C(CC1N)c1cc(OC)c(OC)cc1C1CCCCC12 (mixture of isomers) [Example 17, rac-7β-Butyl-11,12-dimethoxy-2,3,4,4a,6,7,8,9,9a,13bβ-decahydro-1H-pyrido[1,2-f]phenanthridin-8β-ylamine] | 6.85
